In ChEMBL document CHEMBL4673395, “Discovery of PIPE-359, a Brain-Penetrant, Selective M Receptor Antagonist with Robust Efficacy in Murine MOG-EAE” (ACS Med Chem Lett, 2021):
Activity calls are given as the source filed them. The calls are words filed in the database; no cut-off is given here.

How the values were obtained:
[1] = biological target: T1, Muscarinic acetylcholine receptor M1 (Homo sapiens, UniProt P11229); experiment: Antagonist activity at human recombinant muscarinic receptor M1 expressed in CHO-K1 cells assessed as EC80 acetylcholine-induced calcium flux incubated for 30 mins; type: functional, cell-based
T1 sequence (P11229 whole entry): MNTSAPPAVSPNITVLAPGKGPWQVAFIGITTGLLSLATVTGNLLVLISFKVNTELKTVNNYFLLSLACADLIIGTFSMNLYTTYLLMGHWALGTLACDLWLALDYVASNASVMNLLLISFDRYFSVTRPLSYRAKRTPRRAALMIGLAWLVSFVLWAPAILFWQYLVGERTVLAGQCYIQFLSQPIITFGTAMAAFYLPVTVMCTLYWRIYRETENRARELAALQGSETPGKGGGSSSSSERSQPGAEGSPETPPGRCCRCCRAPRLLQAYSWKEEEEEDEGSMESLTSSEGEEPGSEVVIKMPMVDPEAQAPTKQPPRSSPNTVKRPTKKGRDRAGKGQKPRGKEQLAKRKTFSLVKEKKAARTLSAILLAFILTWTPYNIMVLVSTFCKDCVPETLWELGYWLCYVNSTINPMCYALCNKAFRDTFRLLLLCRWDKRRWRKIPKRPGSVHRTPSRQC

[2] = Metabolic stability in rat liver microsomes assessed as parent compound remaining at 1 uM measured at 15 mins by LC-MS/MS analysis; type: ADME, Microsome; conditions: read-out: Stabilty
[3] = Half life in rat at 2 mg/kg, iv; type: ADME, organism-based; conditions: in vivo
[4] = Unbound fraction in rat brain at 10 mg/kg, po measured after 2 hrs by LC-MS/MS; type: ADME, organism-based; conditions: in vivo
[5] = Fraction unbound in rat brain at 30 mg/kg, po measured after 24 hrs; type: ADME, organism-based; conditions: in vivo
[6] = biological target: Cytochrome P450 2C9 (Homo sapiens, UniProt P11712); experiment: Inhibition of human CYP2C9 in pooled human liver microsomes using diclofenac as substrate incubated for 5 mins by LC-MS/MS; type: ADME
[7] = Plasma protein binding in mouse assessed as unbound fraction; type: ADME, cell-free
[8] = Metabolic stability in human liver microsomes assessed as intrinsic clearance at 1 uM measured up to 60 mins by LC-MS/MS analysis; type: ADME, Microsome; conditions: read-out: CLH
[9] = Unbound clearance in rat at 10 mg/kg, po; type: ADME, organism-based; conditions: in vivo
[10] = Drug uptake in rat brain at 10 mg/kg, po measured after 2 hrs by LC-MS/MS; type: ADME, organism-based; conditions: read-out: Drug uptake
[11] = In vivo receptor occupancy at muscarinic M1 receptor in myelin oligodendrocyte glycoprotein (MOG)-induced experimental autoimmune encephalitis C57BL/6 mouse model assessed as decrease in occupancy at 30 mg/kg, po measured after 24 hrs; type: functional; design: Activity: scale not given: the % may be the effect or the level left
[12] = Apparant permeability across apical to basolateral side in dog MDCK-MDR1 cells; type: ADME, cell-based, Canis lupus familiaris
[13] = biological target: T2, Muscarinic acetylcholine receptor M3 (Homo sapiens, UniProt P20309); experiment: Displacement of [3H]NMS from human recombinant muscarinic receptor M3 expressed in CHO-K1 cell membranes assessed as inhibition constant incubated for 1 hr by Radioligand binding assay
[14] = Fraction unbound in rat plasma at 30 mg/kg, po measured after 24 hrs; type: ADME, organism-based; conditions: in vivo
[15] = Metabolic stability in rat liver microsomes assessed as intrinsic clearance at 1 uM measured up to 60 mins by LC-MS/MS analysis; type: ADME, Microsome; conditions: read-out: CLH
[16] = Clearance in rat at 2 mg/kg, iv; type: ADME, organism-based; conditions: in vivo
[17] = biological target: T2, Muscarinic acetylcholine receptor M3; experiment: Antagonist activity at human recombinant muscarinic receptor M3 expressed in CHO-K1 cells assessed as EC80 acetylcholine-induced calcium flux incubated for 30 mins; type: functional, cell-based; conditions: read-out: IC50
[18] = tested on: Mus musculus; experiment: In vivo receptor occupancy at muscarinic M1 receptor in myelin oligodendrocyte glycoprotein (MOG)-induced experimental autoimmune encephalitis C57BL/6 mouse model assessed as decrease in occupancy at 30 mg/kg, po measured up to 8 hrs; type: functional, organism-based; conditions: time hrs <=8
[19] = Plasma protein binding in rat assessed as unbound fraction; type: ADME, cell-free
[20] = Oral bioavailability in rat at 10 mg/kg; type: ADME, organism-based; conditions: in vivo
[21] = biological target: Muscarinic acetylcholine receptor M2 (Homo sapiens, UniProt P08172); experiment: Displacement of [3H]NMS from human recombinant muscarinic receptor M2 expressed in CHO-K1 cell membranes assessed as inhibition constant incubated for 1 hr by Radioligand binding assay
[22] = AUC in rat at 10 mg/kg, po; type: ADME, organism-based; design: dose 10 mg/kg; conditions: in vivo
[23] = biological target: Cytochrome P450 2D6 (Homo sapiens, UniProt P10635); experiment: Inhibition of human CYP2D6 in pooled human liver microsomes using dextromethorphan as substrate incubated for 20 mins by LC-MS/MS; type: ADME
[24] = biological target: T1, Muscarinic acetylcholine receptor M1; experiment: Displacement of [3H]NMS from human recombinant muscarinic receptor M1 expressed in CHO-K1 cell membranes assessed as inhibition constant incubated for 1 hr by Radioligand binding assay
[25] = biological target: Cytochrome P450 3A4 (Homo sapiens, UniProt P08684); experiment: Inhibition of human CYP3A4 in pooled human liver microsomes using midazolam as substrate incubated for 5 mins by LC-MS/MS; type: ADME
[26] = biological target: T3, Muscarinic acetylcholine receptor M2 (Homo sapiens, UniProt P08172); experiment: Antagonist activity at human recombinant muscarinic receptor M2 expressed in CHO-K1 cells assessed as EC80 acetylcholine-induced calcium flux incubated for 30 mins; type: functional, cell-based; conditions: read-out: IC50
T3 sequence (P08172 whole entry): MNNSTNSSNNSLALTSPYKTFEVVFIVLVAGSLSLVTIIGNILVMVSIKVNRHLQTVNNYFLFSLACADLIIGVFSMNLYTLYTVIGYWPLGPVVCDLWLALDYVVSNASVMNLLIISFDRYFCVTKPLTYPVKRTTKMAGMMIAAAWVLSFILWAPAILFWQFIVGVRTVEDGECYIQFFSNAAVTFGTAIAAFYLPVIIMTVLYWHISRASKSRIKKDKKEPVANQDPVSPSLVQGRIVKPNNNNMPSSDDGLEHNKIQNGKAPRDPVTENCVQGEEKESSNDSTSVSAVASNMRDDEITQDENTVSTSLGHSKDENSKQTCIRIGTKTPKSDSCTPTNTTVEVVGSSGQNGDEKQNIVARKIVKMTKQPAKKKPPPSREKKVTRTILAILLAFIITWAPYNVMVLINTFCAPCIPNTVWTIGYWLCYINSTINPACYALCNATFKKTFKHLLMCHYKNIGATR

[27] = AUC in rat at 2 mg/kg, iv; type: ADME, organism-based; design: dose 2 mg/kg; conditions: in vivo
[28] = Fraction unbound in rat plasma at 30 mg/kg, po measured after 8 hrs; type: ADME, organism-based; conditions: in vivo
[29] = Metabolic stability in mouse liver microsomes assessed as intrinsic clearance at 1 uM measured up to 60 mins by LC-MS/MS analysis; type: ADME, Microsome; conditions: read-out: CLH

T2 sequence (P20309 whole entry): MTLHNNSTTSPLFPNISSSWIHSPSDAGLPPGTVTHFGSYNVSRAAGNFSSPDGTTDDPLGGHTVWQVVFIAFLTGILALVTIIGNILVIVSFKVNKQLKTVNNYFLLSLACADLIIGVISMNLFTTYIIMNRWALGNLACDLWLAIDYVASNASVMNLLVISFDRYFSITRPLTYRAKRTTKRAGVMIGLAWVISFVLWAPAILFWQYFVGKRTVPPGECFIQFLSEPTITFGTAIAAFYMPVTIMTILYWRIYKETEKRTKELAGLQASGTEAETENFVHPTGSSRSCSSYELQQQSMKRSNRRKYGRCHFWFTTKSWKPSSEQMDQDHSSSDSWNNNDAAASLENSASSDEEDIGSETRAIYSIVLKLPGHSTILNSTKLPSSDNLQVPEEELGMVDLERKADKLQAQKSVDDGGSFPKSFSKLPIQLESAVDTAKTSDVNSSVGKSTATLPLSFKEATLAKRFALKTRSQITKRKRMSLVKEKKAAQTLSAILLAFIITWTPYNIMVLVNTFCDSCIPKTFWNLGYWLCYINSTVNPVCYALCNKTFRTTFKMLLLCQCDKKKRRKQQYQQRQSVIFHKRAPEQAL
Cytochrome P450 3A4, sequence (P08684 whole entry): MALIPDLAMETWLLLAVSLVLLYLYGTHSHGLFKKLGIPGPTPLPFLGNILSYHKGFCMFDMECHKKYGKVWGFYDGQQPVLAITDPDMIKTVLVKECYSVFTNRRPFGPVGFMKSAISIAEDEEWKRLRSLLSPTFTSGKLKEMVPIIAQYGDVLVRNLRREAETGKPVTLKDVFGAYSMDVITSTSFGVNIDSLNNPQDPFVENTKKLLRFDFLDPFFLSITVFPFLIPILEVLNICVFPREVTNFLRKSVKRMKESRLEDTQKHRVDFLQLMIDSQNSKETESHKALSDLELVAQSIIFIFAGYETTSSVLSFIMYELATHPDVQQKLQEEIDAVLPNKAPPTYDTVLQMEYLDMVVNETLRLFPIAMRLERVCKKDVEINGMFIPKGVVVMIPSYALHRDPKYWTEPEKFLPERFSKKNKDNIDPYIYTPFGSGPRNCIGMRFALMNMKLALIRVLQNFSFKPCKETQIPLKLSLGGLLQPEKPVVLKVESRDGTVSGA
Cytochrome P450 2C9, sequence (P11712 whole entry): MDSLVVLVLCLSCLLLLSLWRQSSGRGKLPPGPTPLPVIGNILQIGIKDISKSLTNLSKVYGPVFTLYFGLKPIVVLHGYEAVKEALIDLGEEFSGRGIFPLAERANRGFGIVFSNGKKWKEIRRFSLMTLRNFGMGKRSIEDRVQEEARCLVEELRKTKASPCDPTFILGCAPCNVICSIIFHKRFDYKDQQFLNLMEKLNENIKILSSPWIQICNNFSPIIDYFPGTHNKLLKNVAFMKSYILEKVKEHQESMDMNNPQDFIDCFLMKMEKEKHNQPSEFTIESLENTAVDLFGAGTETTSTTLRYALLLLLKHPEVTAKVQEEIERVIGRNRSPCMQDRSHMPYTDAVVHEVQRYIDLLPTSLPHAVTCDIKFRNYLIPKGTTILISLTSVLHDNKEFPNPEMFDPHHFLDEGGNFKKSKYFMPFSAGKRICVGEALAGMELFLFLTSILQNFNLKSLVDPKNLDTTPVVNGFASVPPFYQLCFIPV
Cytochrome P450 2D6, sequence (P10635 whole entry): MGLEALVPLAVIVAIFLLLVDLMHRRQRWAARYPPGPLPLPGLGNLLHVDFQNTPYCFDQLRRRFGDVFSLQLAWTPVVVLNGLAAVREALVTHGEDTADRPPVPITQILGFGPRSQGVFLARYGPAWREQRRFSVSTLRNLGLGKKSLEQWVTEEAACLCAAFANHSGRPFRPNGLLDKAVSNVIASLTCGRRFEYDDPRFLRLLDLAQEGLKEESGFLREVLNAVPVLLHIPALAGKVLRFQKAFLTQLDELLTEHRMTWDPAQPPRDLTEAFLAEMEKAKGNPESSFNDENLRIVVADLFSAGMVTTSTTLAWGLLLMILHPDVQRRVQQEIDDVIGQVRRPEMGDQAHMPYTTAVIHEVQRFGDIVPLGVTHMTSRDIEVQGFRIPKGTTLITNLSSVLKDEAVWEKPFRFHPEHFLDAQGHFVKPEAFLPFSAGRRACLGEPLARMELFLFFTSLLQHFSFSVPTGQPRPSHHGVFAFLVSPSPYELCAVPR

## O=C(CCCc1cccc2ncccc12)N1CCN(c2ccncc2F)CC1
[1]; read-out: IC50
  IC50: 490 nM

## Cc1ccncc1N1CCN(C(=O)CCS(=O)(=O)c2cccc3ncsc23)CC1
[1]; read-out: IC50
  IC50: 260 nM

## O=C(CCCc1cccc2ncccc12)N1CC2(C1)CN(c1ccc(F)cn1)C2
[1]; read-out: IC50
  IC50: > 20000 nM
[1]; read-out: pIC50 (converted)
  IC50: > 10000 nM

## Cc1cc(F)cnc1N1CCN(C(=O)CCCc2cccc3ncc(CO)cc23)[C@@H](C)C1
[2]
  remaining at 0.25 h, 1 µM: 1%
[1]; read-out: IC50
  IC50: > 170 nM
[1]; read-out: pIC50 (converted)
  IC50: 158 nM

## Cc1cncc(Cl)c1N1CCN(C(=O)CCS(=O)(=O)c2cccc3ncsc23)CC1
[1]; read-out: IC50
  IC50: 8500 nM

## Cc1cc(F)cnc1N1CCN(C(=O)CCCc2cccc3ncccc23)CC1
[1]; read-out: IC50
  IC50: 69 nM

## O=C(CCNS(=O)(=O)c1cccc2ncccc12)N1CCN(c2ccncc2)CC1
[1]; read-out: IC50
  IC50: 130 nM

## Cc1cc(F)cnc1N1CCN(C(=O)CCCc2cccc3ncsc23)[C@@H](C)C1
[2]
  remaining at 0.25 h, 1 µM: 5.3%
[1]; read-out: IC50
  IC50: 24 nM

## CC1(C)CN(c2ccc(C#N)cn2)CCN1C(=O)CCS(=O)(=O)c1cccc2ncsc12
[1]; read-out: IC50
  IC50: 4100 nM

## O=C(CCS(=O)(=O)c1cccc2ncsc12)N1CCN(c2ccc(C(F)(F)F)cn2)CC1
[2]
  remaining at 0.25 h, 1 µM: 41%
[1]; read-out: IC50
  IC50: 32 nM

## N#Cc1cc(N2CCN(C(=O)CCCc3cccc4ncccc34)CC2)ccn1
[1]; read-out: IC50
  IC50: 65 nM

## N#Cc1ccc(N2C3CCC2CN(C(=O)CCS(=O)(=O)c2cccc4ncsc24)C3)nc1
[3]
  half-life: 54 min
[4]
  Drug uptake(free): 3.4 nM
[5]
  Drug uptake(free): 0.12 nM
[6]
  IC50: > 10000 nM
[7]
  fraction unbound: 0.18
[8]
  microsomal CLint at 1 µM: 42 µL/min/mg
[9]
  CL free: 273 mL/min/kg
[10]
  concentration at 2 h: 26 nM
[11]
  Activity: 40%
[12]
  Papp A→B: 7.7 ×10⁻⁶ cm/s
[13]
  Ki: 0.84 nM
[14]
  Cp(f): 2.9 nM
[15]
  microsomal CLint at 1 µM: 23 µL/min/mg
[16]
  clearance: 56 mL/min/kg
[17]
  IC50: 55 nM
[18]
  Occ: Active
[19]
  fraction unbound: 0.2
[20]
  bioavailability: 4.5%
[21]
  Ki: 19 nM
[22]
  AUC: 21 ng·h/mL
[1]; read-out: IC50
  IC50: 1.8 nM
[23]
  IC50: > 10000 nM
[24]
  Ki: 0.14 nM
[25]
  IC50: > 10000 nM
[26]
  IC50: 200 nM
[27]
  AUC: 100 ng·h/mL
[28]
  Cp(f): 117 nM
[29]
  microsomal CLint at 1 µM: 21 µL/min/mg

## O=C(CCCc1cccc2ncccc12)N1CC2CC1CN2c1ccc(F)cn1 (racemic)
[1]; read-out: IC50
  IC50: 950 nM

## N#Cc1cnccc1N1CCN(C(=O)CCCc2cccc3ncccc23)CC1
[1]; read-out: IC50
  IC50: 1100 nM

## O=C(CCS(=O)(=O)c1cccc2ncsc12)N1CCN(c2ccncc2F)CC1
[2]
  remaining at 0.25 h, 1 µM: 29%
[1]; read-out: IC50
  IC50: 380 nM

## CC1CN(c2ccc(C#N)cn2)CCN1C(=O)CCS(=O)(=O)c1cccc2ncsc12 (racemic)
[1]; read-out: IC50
  IC50: 22 nM

## Cc1cc(F)cnc1N1CCCN(C(=O)CCCc2cccc3ncccc23)CC1
[1]; read-out: IC50
  IC50: 1400 nM

## N#Cc1ccc(N2C3COCC2CN(C(=O)CCS(=O)(=O)c2cccc4ncsc24)C3)nc1
[1]; read-out: IC50
  IC50: 31 nM

## O=C(CCCc1cccc2ncccc12)N1CCN(c2ccncc2)CC1
[1]; read-out: IC50
  IC50: 24 nM

## O=C(CCS(=O)(=O)c1cccc2ncsc12)N1CCN(c2ccc(Cl)cn2)CC1
[2]
  remaining at 0.25 h, 1 µM: 31%
[1]; read-out: IC50
  IC50: 160 nM
